As a reminder, the IC50 is the point on the concentration scale where inhibition reaches its midpoint.

The test system of the first assay is Toledo cells. Description: Cell proliferation assay, Toledo cells (MTS, 72 h). The format is cell-based. The following applies: Homo sapiens, Toledo cells, MTS, read-out: Toledo IC50. The method, boiled down: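 Toledo cells (30000/well, RPMI-1640 with 10% FBS) were preincubated for 4 h. They were then exposed to nine compound concentrations from 10000 to 1.5 nM for 72 h at 37 °C, 5% CO2. MTS was added for 2 h and absorbance read at 490 nm to give IC50.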
With `CC(C)c1ccccc1[C@@H]1CS(=O)(=O)CCN1C1CC2(CCN(c3ccc(C(=O)NS(=O)(=O)c4cc5c(c([N+](=O)[O-])c4)N[C@@H]([C@H]4CC[C@](C)(O)CC4)CO5)c(Oc4cnc5[nH]cc(F)c5c4)c3)CC2)C1` (single isomer, unassigned) [Example D-79, 2-((3-fluoro-1H-pyrrolo[2,3-b]pyridin-5-yl)oxy)-N-(((S)-3-((1r,4S)-4-hydroxy-4-methylcyclohexyl)-5-nitro-3,4-dihydro-2H-benzo[b] [1,4]oxazin-7-yl)sulfonyl)-4-(2-((R or S)-3-(2-isopropylphenyl)-1,1-dioxidothiomorpholino)-7-azaspiro [3.5]nonan-7-yl)benzamide], the IC50 came out at 1 nM. The same measure, in the same setting: in the case of `CC(C)c1ccccc1[C@@H]1CCC[C@@H]1N1CC2(CCN(c3ccc(C(=O)NS(=O)(=O)c4cnc(NC[C@H]5CC[C@](C)(O)CC5)c([N+](=O)[O-])c4)c(Oc4cc5cc[nH]c5nc4OC4COC4)c3)CC2)C1` (single isomer, unassigned) [Example A-162, N-((6-((((1r,4r)-4-hydroxy-4-methyl-cyclohexyl)methyl)amino)-5-nitro-pyridin-3-yl)sulfonyl)-4-(2-((1S,2S or 1R,2R)-2-(2-isopropylphenyl)cyclo-pentyl)-2,7-diazaspiro[3.5]nonan-7-yl)-2-((6-(oxetan-3-yloxy)-1H-pyrrolo [2,3-b]pyridin-5-yl)oxy)benzamide] it was 1 nM; in that of `COC(=O)N1CCN(C2CC3(CCN(c4ccc(C(=O)NS(=O)(=O)c5cc6c(c([N+](=O)[O-])c5)N[C@@H]([C@H]5CC[C@](C)(O)CC5)CO6)c(Oc5cnc6[nH]cc(F)c6c5)c4)CC3)C2)[C@H](c2ccccc2C(C)C)C1` (single isomer, unassigned) [Example D-144, methyl (R or S)-4-(7-(3-((3-fluoro-1H-pyrrolo [2,3-b]pyridin-5-yl)oxy)-4-((S)-3-((1r,4S)-4-hydroxy-4-methylcyclohexyl)-5-nitro-3,4-dihydro-2H-benzo[b][1,4]oxazin-7-yl)sulfonyl)carbamoyl)phenyl)-7-azaspiro[3.5] nonan-2-yl)-3-(2-isopropylphenyl) piperazine-1-carboxylate], 1 nM. Same read-out and setting: the same measure for `CC(C)c1ccccc1[C@@H]1CC[C@H](CO)N1C1CC2(CCN(c3ccc(C(=O)NS(=O)(=O)c4cc5c(c([N+](=O)[O-])c4)N[C@@H]([C@H]4CC[C@](C)(O)CC4)CO5)c(Oc4cnc5[nH]cc(F)c5c4)c3)CC2)C1` [Example D-254, 2-((3-fluoro-1H-pyrrolo[2,3-b]pyridin-5-yl)oxy)-N-(((S)-3-((1r,4S)-4-hydroxy-4-methylcyclohexyl)-5-nitro-3,4-dihydro-2H-benzo[b] [1,4]oxazin-7-yl)sulfonyl)-4-(2-((2R,5S)-2-(hydroxymethyl)-5-(2-isopropylphenyl)pyrrolidin-1-yl)-7-azaspiro[3.5]nonan-7-yl)benzamide]: 1 nM; for `CC(C)c1ccccc1[C@@H]1CC[C@@H](CO)N1C1CC2(CCN(c3ccc(C(=O)NS(=O)(=O)c4cc5c(c([N+](=O)[O-])c4)N[C@@H]([C@H]4CC[C@](C)(O)CC4)CO5)c(Oc4cnc5[nH]cc(F)c5c4)c3)CC2)C1` [Example D-253, 2-((3-fluoro-1H-pyrrolo[2,3-b]pyridin-5-yl)oxy)-N-(((S)-3-((1r,4S)-4-hydroxy-4-methylcyclohexyl)-5-nitro-3,4-dihydro-2H-benzo[b] [1,4]oxazin-7-yl)sulfonyl)-4-(2-((2S,5S)-2-(hydroxymethyl)-5-(2-isopropylphenyl)pyrrolidin-1-yl)-7-azaspiro[3.5]nonan-7-yl)benzamide]: 1 nM; for `CC(C)c1ccccc1[C@@H]1CCCN1C1CC2(CCN(c3ccc(C(=O)NS(=O)(=O)c4cc5c(c([N+](=O)[O-])c4)S[C@@H]([C@H]4CC[C@](C)(O)CC4)CO5)c(Oc4cnc5[nH]cc(F)c5c4)c3)CC2)C1` (single isomer, unassigned) [Example E-2, 2-((3-fluoro-1H-pyrrolo[2,3-b]pyridin-5-yl)oxy)-N-(((S)-3-((1r,4S)-4-hydroxy-4-methylcyclohexyl)-5-nitro-2,3-dihydrobenzo[b][1,4]oxathiin-7-yl)sulfonyl)-4-(2-((R or S)-2-(2-isopropylphenyl)pyrrolidin-1-yl)-7-azaspiro[3.5]nonan-7-yl)benzamide]: 1 nM.

Take `CC(C)c1ccccc1[C@@H]1CCCN1C1CC2(CCN(c3ccc(C(=O)NS(=O)(=O)c4cc5c(c([N+](=O)[O-])c4)N[C@@H]([C@H]4CC[C@](C)(O)CC4)CO5)c(Oc4cc5cc[nH]c5nc4OCCO)c3)CC2)C1` (single isomer, unassigned) [Example D-68, N-(((S)-3-((1r,4S)-4-hydroxy-4-methylcyclohexyl)-5-nitro-3,4-dihydro-2H-benzo[b][1,4]oxazin-7-yl)sulfonyl)-2-((6-(2-hydroxyethoxy)-1H-pyrrolo[2,3-b]pyridin-5-yl)oxy)-4-(2-((R or S)-2-(2-isopropylphenyl)pyrrolidin-1-yl)-7-azaspiro[3.5]nonan-7-yl)benzamide]: the IC50 is 1 nM. Same read-out and setting: the same measure for `CC(C)c1ccccc1[C@@H]1CCC[C@@H]1N1CC2(CCN(c3ccc(C(=O)NS(=O)(=O)c4ccc(NC[C@H]5CC[C@](C)(O)CC5)c([N+](=O)[O-])c4)c(Oc4cc5cc[nH]c5nc4Cl)c3)CC2)C1` (single isomer, unassigned) [Example D-232, 2-((6-chloro-1H-pyrrolo[2,3-b]pyridin-5-yl)oxy)-N-((4-((1r,4r)-4-hydroxy-4-methylcyclohexyl)methyl)amino)-3-nitrophenyl) sulfonyl)-4-(2-((1S,2S or 1R,2R)-2-(2-isopropylphenyl) cyclopentyl)-2,7-diazaspiro[3.5] nonan-7-yl)benzamide]: 1 nM; for `COCCOc1nc2[nH]ccc2cc1Oc1cc(N2CCC3(CC2)CC(N2CCC[C@H]2c2ccccc2C(C)C)C3)ccc1C(=O)NS(=O)(=O)c1cc2c(c([N+](=O)[O-])c1)N[C@@H](C[C@H]1CC[C@](C)(O)CC1)CO2` (single isomer, unassigned) [Example D-21, N-(((S)-3-(((1r,4S)-4-hydroxy-4-methylcyclohexyl)methyl)-5-nitro-3,4-dihydro-2H-benzo[b][1,4]oxazin-7-yl)sulfonyl)-4-(2-((R or S)-2-(2-isopropylphenyl)pyrrolidin-1-yl)-7-azaspiro[3.5]nonan-7-yl)-2-((6-(2-methoxyethoxy)-1H-pyrrolo[2,3-b]pyridin-5-yl)oxy) benzamide]: 1 nM; for `CC(C)c1ccccc1[C@@H]1CCCN1C1CC2(CCN(c3ccc(C(=O)NS(=O)(=O)c4cc5c(c([N+](=O)[O-])c4)N[C@H]([C@H]4CC[C@@H](O)CC4)CO5)c(Oc4cnc5[nH]cc(F)c5c4)c3)CC2)C1` (single isomer, unassigned) [Example D-43, 2-((3-fluoro-1H-pyrrolo[2,3-b]pyridin-5-yl)oxy)-N-(R)-3-((1s,4S)-4-hydroxycyclohexyl)-5-nitro-3,4-dihydro-2H-benzo[b][1,4]oxazin-7-yl)sulfonyl)-4-(2-((R or S)-2-(2-isopropylphenyl)pyrrolidin-1-yl)-7-azaspiro[3.5]nonan-7-yl)benzamide]: 1 nM. Same read-out and setting: the same measure for `CO[C@H]1CC[C@H]([C@H]2COc3cc(S(=O)(=O)NC(=O)c4ccc(N5CCC6(CC5)CC(N5CCC[C@H]5c5ccccc5C(C)C)C6)cc4Oc4cnc5[nH]cc(F)c5c4)cc([N+](=O)[O-])c3N2)CC1` (single isomer, unassigned) [Example D-44, 2-((3-fluoro-1H-pyrrolo[2,3-b]pyridin-5-yl)oxy)-4-(2-((R or S)-2-(2-isopropylphenyl)pyrrolidin-1-yl)-7-azaspiro[3.5]nonan-7-yl)-N-(((S)-3-((1r,4S)-4-methoxycyclohexyl)-5-nitro-3,4-dihydro-2H-benzo[b][1,4]oxazin-7-yl)sulfonyl)benzamide]: 1 nM; for `CC(C)c1ccccc1[C@@H]1CCCN1C1CC2(CCN(c3ccc(C(=O)NS(=O)(=O)c4cc5c(c([N+](=O)[O-])c4)N[C@@H]([C@H]4CC[C@](C)(O)CC4)CO5)c(Oc4cc5cc[nH]c5nc4OC(F)F)c3)CC2)C1` (single isomer, unassigned) [Example D-11, 2-((6-(difluoromethoxy)-1H-pyrrolo [2,3-b]pyridin-5-yl)oxy)-N-(((S)-3-((1r,4S)-4-hydroxy-4-methylcyclohexyl)-5-nitro-3,4-dihydro-2H-benzo[b][1,4]oxazin-7-yl)sulfonyl)-4-(2-((R or S)-2-(2-isopropylphenyl)pyrrolidin-1-yl)-7-azaspiro[3.5]nonan-7-yl)benzamide]: 1 nM; for `CC(C)c1ccccc1C1(O)CCCC1N1CC2(CCN(c3ccc(C(=O)NS(=O)(=O)c4cc5c(c([N+](=O)[O-])c4)N[C@@H]([C@H]4CC[C@](C)(O)CC4)CO5)c(Oc4cnc5[nH]cc(F)c5c4)c3)CC2)C1` (stereo partly drawn) [Example D-247, 2-((3-fluoro-1H-pyrrolo[2,3-b]pyridin-5-yl)oxy)-4-(2-(2-hydroxy-2-(2-isopropylphenyl)cyclopentyl)-2,7-diazaspiro[3.5]nonan-7-yl)-N-(((S)-3-((1r,4S)-4-hydroxy-4-methylcyclohexyl)-5-nitro-3,4-dihydro-2H-benzo[b][1,4]oxazin-7-yl)sulfonyl)benzamide]: 1 nM.

Still in this assay, the particulars now being: Toledo cells, MTS, read-out: Toledo IC50.
As for `CC(C)c1ccccc1[C@H]1CCCN1C1CC2(CCN(c3ccc(C(=O)NS(=O)(=O)c4cc5c(c([N+](=O)[O-])c4)NC([C@@H]4COCCO4)CO5)c(Oc4cnc5[nH]cc(F)c5c4)c3)CC2)C1` (single isomer, unassigned) [Example D-49b, N-(((R or S)-3-((R)-1,4-dioxan-2-yl)-5-nitro-3,4-dihydro-2H-benzo[b][1,4]oxazin-7-yl)sulfonyl)-2-((3-fluoro-1H-pyrrolo[2,3-b]pyridin-5-yl)oxy)-4-(2-((R or S)-2-(2-isopropylphenyl)pyrrolidin-1-yl)-7-azaspiro[3.5]nonan-7-yl)benzamide], the IC50 stood at 1 nM.
